Activity calls are given as the source filed them.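 The calls were made as follows: active = fitted curve falling to -50% or lower, with AC50 no more than twice the sample's top valid dose; inactive = the rest, including changes in the wrong direction.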

System in one assay: not listed separately
In words: ATP-based viability loss in A549 cells – cell-based, CellTiter-Glo luminescence, dry powder samples, cytotoxicity control, dose response (AID 720585). The conditions noted are these: A549 viability, CellTiter-Glo ATP luminescence, 72 h; at 26 µM (top of the series).
Turning to `Cc1ccc(-c2cc(C(F)(F)F)n3nc(C(=O)Nc4cccnc4)cc3n2)cc1`, the activity change, negative = cytotoxicity was -7.78% (inactive).
Take `O=C(O)CC/C(=C\c1ccccc1[N+](=O)[O-])c1nc2ccccc2s1`: the activity change, negative = cytotoxicity is -7.05% (inactive).
Consider `O=C(Nc1ccc2snnc2c1)N1CCCCC1`, for which the activity change, negative = cytotoxicity was -9.31% (inactive).
Still for that read-out and setting: as for `O=C(Nc1ccc(F)cc1)N1CCN(c2ccccc2)CC1`, the figure is -4.84% (inactive); as for `O=C(O)CC/C(=C\c1ccc([N+](=O)[O-])cc1)c1nc2ccccc2s1`, 5.24% (inactive).
Consider `O=C(c1ccc2c(c1)OCO2)N1CCN(Cc2ccccc2)CC1`, for which the activity change, negative = cytotoxicity was 9.39% (inactive).
On to `O=C(Nc1cccnc1)c1cnn2c(C(F)(F)F)cc(-c3ccccc3)nc12`, for which the activity change, negative = cytotoxicity is -2.52% (inactive).
Consider `O=C(Nc1ccncc1)c1cc2nc(C3CC3)cc(C(F)F)n2n1`, for which the activity change, negative = cytotoxicity was 2.81% (inactive).
Still for that read-out and setting: next, `CC(=O)c1ccc(N2CCN(C(=O)c3ccc(C)cc3)CC2)cc1`: -8.81% (inactive); `COC(=O)c1c(C(=O)OC)c(-c2cccc(F)c2)n2c1CS(=O)C2` (centres undefined): 2.89% (inactive).
In the case of `Cc1nc2ccc(NC(=O)N3CCN(c4ccccc4)CC3)cc2s1`, the activity change, negative = cytotoxicity is 0.35% (inactive).
Still for that read-out and setting: as for `COc1cc(/C=C/C(=O)Nc2cccnc2)cc(OC)c1OC`, the figure is 11.1% (inactive).
For `O=C(Nc1ccc2[nH]ccc2c1)N1CCN(c2ccccc2)CC1`, the activity change, negative = cytotoxicity was -0.377% (inactive).
In the case of `CC(=O)c1ccc(N2CCN(C(=O)c3cccc(Cl)c3)CC2)cc1`, the activity change, negative = cytotoxicity is 4.97% (inactive).
`COc1cccc(C(=O)N2CCN(c3ccc(C(C)=O)cc3)CC2)c1`: the activity change, negative = cytotoxicity was -3.71% (inactive).
Consider `O=C(Nc1cccnc1)c1cc2nc(-c3cccs3)cc(C(F)(F)F)n2n1`, for which the activity change, negative = cytotoxicity is -3.55% (inactive).
Same read-out and setting: as for `COc1cccc(NC(=O)CCC2CCN(C(=O)c3ccc(C(C)=O)s3)CC2)c1`, the figure is -3.35% (inactive).
On to `CC(=O)c1ccc(N2CCN(C(=O)c3ccc4c(c3)OCO4)CC2)cc1`, for which the activity change, negative = cytotoxicity was -12.8% (inactive).
Consider `CC(=O)c1ccc(N2CCN(C(=O)c3ccc4ncsc4c3)CC2)cc1`, for which the activity change, negative = cytotoxicity is 2.15% (inactive).
Still for that read-out and setting: as for `Cc1ccc(NC(=O)N2CCN(c3ccccc3)CC2)cc1`, the figure is -5.15% (inactive).
On to `CC(=O)c1ccc(N2CCN(C(=O)c3cccnc3)CC2)cc1`, for which the activity change, negative = cytotoxicity is 0.559% (inactive).
On to `O=C(Nc1ccc2snnc2c1)N1CCN(c2ccccc2)CC1`, for which the activity change, negative = cytotoxicity was -13.4% (inactive).
The same measure, in the same setting: as for `CC(=O)c1ccc(N2CCN(C(=O)c3cccc(F)c3)CC2)cc1`, the figure is -1.71% (inactive); as for `COc1ccc(-c2cc(C(F)(F)F)n3nc(C(=O)Nc4cccnc4)cc3n2)cc1`, 5.08% (inactive).
In the case of `COc1ccc(N2CCN(C(=O)c3ccc4c(c3)OCO4)CC2)cc1`, the activity change, negative = cytotoxicity was -3.29% (inactive).
As for `Cc1ccc(/C=C(\CC(=O)O)c2nc3ccccc3s2)cc1[N+](=O)[O-]`, the activity change, negative = cytotoxicity was 7.43% (inactive).
For `CC(=O)c1ccc(N2CCN(C(=O)c3ccc(Cl)cc3)CC2)cc1`, the activity change, negative = cytotoxicity was 3.76% (inactive).
With `Cc1ccc(/C=C(\CCC(=O)O)c2nc3ccccc3s2)cc1`, the activity change, negative = cytotoxicity was -2.14% (inactive).
On the same count and under the same terms, as for `O=C(COc1ccc2ccc(=O)oc2c1)N1CCN(c2ccc(F)cc2)CC1`, the figure is -15.6% (inactive).
Take `CCc1ccc(C(=O)N2CCN(Cc3ccc4c(c3)OCO4)CC2)cc1`: the activity change, negative = cytotoxicity is -0.901% (inactive).
As to `O=C(Nc1ccc(Cl)cc1)c1cc2nc(C3CC3)cc(C(F)(F)F)n2n1`, the activity change, negative = cytotoxicity was 12.6% (inactive).
With `CC(=O)c1ccc(N2CCN(C(=O)c3ccc(Br)cc3)CC2)c(F)c1`, the activity change, negative = cytotoxicity is -2.87% (inactive).
On the same count and under the same terms, as for `O=C(Nc1cccc(Cl)c1)N1CCN(c2ccccc2)CC1`, the figure is -1.38% (inactive); as for `COc1ccc(NC(=O)N2CCN(c3ccccc3)CC2)cc1`, -3.72% (inactive).
On the same count and under the same terms, as for `COc1cccc(NC(=O)N2CCN(c3ccccc3)CC2)c1`, the figure is 8.71% (inactive).
As to `O=C(Nc1cccnc1)N1CCN(c2ccccc2)CC1`, the activity change, negative = cytotoxicity is -2.28% (inactive).
With `O=C(Nc1cccnc1)c1cnn2c(C(F)F)cc(C3CC3)nc12`, the activity change, negative = cytotoxicity is -2.75% (inactive).
As to `CCN(CC)c1ccc2cc(C(=O)c3cccs3)c(=O)oc2c1`, the activity change, negative = cytotoxicity was 7.58% (inactive).
`Cc1cccc(/C=C(\CCC(=O)O)c2nc3ccccc3s2)c1`: the activity change, negative = cytotoxicity is -7.62% (inactive).
On to `Cc1nc2cc(NC(=O)N3CCN(c4ccccc4)CC3)ccc2o1`, for which the activity change, negative = cytotoxicity was -4.28% (inactive).
As for `O=C(Nc1cccc(F)c1)N1CCN(c2ccccc2)CC1`, the activity change, negative = cytotoxicity is 5.56% (inactive).
Take `O=C(Nc1ccc2snnc2c1)N1CCOCC1`: the activity change, negative = cytotoxicity was 9.86% (inactive).
Same read-out and setting: next, `O=C(c1ccc2c(c1)OCO2)N1CCN(c2ccccc2)CC1`: -3.52% (inactive); `Cc1ccc(/C=C(\CCC(=O)O)c2nc3ccccc3s2)cc1[N+](=O)[O-]`: -3.79% (inactive); `O=C(c1ccc2c(c1)OCO2)N1CCN(c2ccc(Cl)cc2)CC1`: -6.96% (inactive).
`CC(=O)c1ccc(N2CCN(C(=O)c3ccc4c(c3)OCCO4)CC2)cc1`: the activity change, negative = cytotoxicity is -10.1% (inactive).
On the same count and under the same terms, as for `O=C(c1ccc2c(c1)OCO2)N1CCN(c2ccc(F)cc2)CC1`, the figure is -0.413% (inactive); as for `Cc1cc(C)n2nc(C(=O)Nc3cccnc3)cc2n1`, 0.879% (inactive); as for `CCOC(=O)N1CCN(C(=O)Nc2ccc3snnc3c2)CC1`, -11% (inactive).
Still for that read-out and setting: as for `CC(=O)c1ccc(N2CCN(C(=O)c3ccc(F)cc3)CC2)cc1`, the figure is -0.22% (inactive); as for `O=C(Nc1ccccc1)N1CCN(c2ccccc2)CC1`, -0.224% (inactive).
For `COc1ccc(C(=O)N2CCN(c3ccc(C(C)=O)cc3)CC2)cc1`, the activity change, negative = cytotoxicity was 13.7% (inactive).
As to `CC(=O)c1ccc(N2CCN(Cc3ccc4c(c3)OCO4)CC2)cc1`, the activity change, negative = cytotoxicity is -4.27% (inactive).
With `CC(C)(C)c1ccc(C(=O)N2CCN(c3ccc4c(c3)OCO4)CC2)cc1`, the activity change, negative = cytotoxicity is -3.25% (inactive).

A further assay has as its system A549 viability, CellTiter-Glo ATP luminescence, 72 h. Described as above.
Conditions: not given
Regarding `CCc1ccc(N2CCN(C(=O)c3ccc4c(c3)OCO4)CC2)cc1`, the AC50 was > 26 µM (inactive).
Turning to `Cc1cc(C)n2nc(C(=O)Nc3cccnc3)nc2n1`, the AC50 is > 26 µM (inactive).
Turning to `Cc1ccccc1/C=C(\CCC(=O)O)c1nc2ccccc2s1`, the AC50 was > 26 µM (inactive).
In the case of `CC(=O)c1ccc(N2CCN(C(=O)c3ccccc3)CC2)cc1`, the AC50 was > 26 µM (inactive).
For `O=C(Nc1ccc(Cl)c(-c2nc3ccccc3[nH]2)c1)c1cccnc1`, the AC50 is > 26 µM (inactive).

In general, AC50 refers to the concentration at which the activity in the assay is half-maximal.

Values taken from PubChem BioAssay AID720585 (Broad Institute, 2013).
